One assay has as its target CREBBP (Homo sapiens (Human), UniProt Q92793). The assay can be described thus: AlphaScreen in-vitro binding assay for CREBBP. Particulars: 324 nM His-CREBBP (1081-1197), acetyl-histone H4 (AcK 5, 8, 12) peptide. A digest of the protocol: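 IC50 values were derived by non-linear regression of percent inhibition across 8 compound concentrations. Protein was His-tagged CREBBP bromodomain (1081-1197), peptide acetyl-histone H4 (AcK 5, 8, 12), in HEPES pH 7.5 buffer. Read-out was AlphaScreen with Ni-chelate acceptor and streptavidin donor beads, 35 min at 30° C then 60 min at RT.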

For a further assay, the system named is MV-4-11. The assay can be described thus: Cell growth inhibition assay (CellTiter-Glo), MV-4-11. The class given is cell-based, human. Particulars: MV-4-11 cells, 4 days; for GI50: Homo sapiens, MV4-11, 96 h, half-maximal growth inhibition; for MV-4-11 TGI: total growth inhibition. A digest of the protocol: (§1)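 Cells were treated with 3-fold serial dilutions of compound starting at 10 μM for 4 days at 37 °C and 5% CO2, and viability was then read as ATP by CellTiter-Glo luminescence. Signals were background- and day 0-corrected against 0.1% DMSO vehicle (100%) and medium (−100%). IC50 and TGI came from four-parameter fits.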

The next assay has as its system K-562. The assay can be described thus: Cell growth inhibition assay (CellTiter-Glo), K-562. The format is cell-based, human. Particulars: K-562 cells, 4 days; for GI50: Homo sapiens, K562, 96 h, half-maximal growth inhibition; for K-562 TGI: total growth inhibition. The essentials: as §1
The next assay has as its system THP-1. The assay can be described thus: Cell growth inhibition assay (CellTiter-Glo), THP-1. The class given is cell-based, human. Particulars: THP-1 cells, 4 days; for GI50: Homo sapiens, 96 h, half-maximal growth inhibition; for THP-1 TGI: total growth inhibition. The essentials: as §1

Chain of CREBBP (Q92793 1081-1197): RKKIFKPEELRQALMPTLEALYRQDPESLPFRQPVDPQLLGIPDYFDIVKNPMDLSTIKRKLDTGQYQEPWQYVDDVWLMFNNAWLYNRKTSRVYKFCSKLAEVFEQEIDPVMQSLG

In the case of `Cc1cn(C)c2c1C(=O)N(c1cc(C)c3nnc(C)n3c1)C2c1ccc(Cl)cc1` (stereo not drawn) [Example 33, 6-(4-chlorophenyl)-5-(3,8-dimethyl-[1,2,4]triazolo[4,3-a]pyridin-6-yl)-1,3-di methyl-5,6-dihydropyrrolo[3,4-b]pyrrol-4(1H)-one], at CREBBP, the IC50 was found to be 10100 nM. Further, in the assay on MV-4-11, halving of growth (GI50) required 7.71 nM and the “MV-4-11 TGI” value came to 0.02005 µM. Further, in the assay with K-562, the GI50 was 97.4 nM and the “K-562 TGI” value is greater than 10 µM. For the same compound, in the assay with THP-1, the GI50 worked out at 17.4 nM and the “THP-1 TGI” value stood at 0.0356 µM.
On CREBBP, `Cc1cn(C)c2c1C(=O)N(c1cc(C)c(=O)n(C)c1)C2c1ccc(Cl)cc1` (stereo not drawn) [Example 34, 6-(4-chlorophenyl)-5-(1,5-dimethyl-6-oxo-1,6-dihydropyridin-3-yl)-1,3-dimethyl-5,6-dihydropyrrolo[3,4-b]pyrrol-4(1H)-one] had an IC50 of 1900 nM. For the same compound, in the assay on MV-4-11, the GI50 is 19.4 nM and the “MV-4-11 TGI” value worked out at 0.0483 µM. Besides, in the assay on K-562, the GI50 was 241 nM and the “K-562 TGI” value was greater than 10 µM. For the same compound, in the assay on THP-1, the GI50 worked out at 43.8 nM and the “THP-1 TGI” value was determined as 0.0994 µM.
Take `COc1ncc(-c2cc3c(n2C)C(c2ccc(Cl)cc2)N(c2cc(Cl)c(=O)n(C)c2)C3=O)c(OC)n1` (stereo not drawn) [Example 38, 5-(5-chloro-1-methyl-6-oxo-1,6-dihydropyridin-3-yl)-6-(4-chlorophenyl)-2-(2,4-dimethoxypyrimidin-5-yl)-1-methyl-5,6-dihydropyrrolo[3,4-b]pyrrol-4(1H)-one]: on CREBBP, the IC50 stood at 205 nM. Also, in the assay on MV-4-11, the GI50 is 29.4 nM and the “MV-4-11 TGI” value is 0.0515 µM. Also, in the assay on K-562, the GI50 amounted to 154 nM and the “K-562 TGI” value is greater than 10 µM. In addition, in the assay on THP-1, the GI50 turned out to be 37.5 nM and the “THP-1 TGI” value was found to be 0.0727 µM.
Compound `Cn1c(-c2ccc(=O)n(C)c2)cc2c1C(c1ccc(Cl)cc1)N(c1cc(Cl)c(=O)n(C)c1)C2=O` (stereo not drawn) [Example 42, 5-(5-chloro-1-methyl-6-oxo-1,6-dihydropyridin-3-yl)-6-(4-chlorophenyl)-1-methyl-2-(1-methyl-6-oxo-1,6-dihydropyridin-3-yl)-5,6-dihydropyrrolo[3,4-b]pyrrol-4(1H)-one] yielded an IC50 on CREBBP of 310 nM. In the assay on MV-4-11, it took 227 nM to inhibit growth by half (GI50) and the “MV-4-11 TGI” value was determined as 0.348 µM. Further, in the assay with K-562, the GI50 was determined as 3190 nM and the “K-562 TGI” value is greater than 10 µM. For the same compound, in the assay on THP-1, halving of growth (GI50) required 811 nM and the “THP-1 TGI” value was 1.47 µM.
As to `Cc1cc(N2C(=O)c3cc(-c4ccn(C)c(=O)c4)n(C)c3C2c2ccc(Cl)cc2)cn(C)c1=O` (stereo not drawn) [Example 45, 6-(4-chlorophenyl)-5-(1,5-dimethyl-6-oxo-1,6-dihydropyridin-3-yl)-1-methyl-2-(1-methyl-2-oxo-1,2-dihydropyridin-4-yl)-5,6-dihydropyrrolo[3,4-b]pyrrol-4(1H)-one], the IC50 at CREBBP was found to be 370 nM. In the assay on MV-4-11, the GI50 was determined as 55.9 nM and the “MV-4-11 TGI” value stood at 0.0967 µM. In the assay on K-562, the GI50 amounted to 345 nM and the “K-562 TGI” value is greater than 10 µM. For the same compound, in the assay with THP-1, it took 109 nM to inhibit growth by half (GI50) and the “THP-1 TGI” value is 0.213 µM.
The compound `COc1ncc(-c2cc3c(n2C)[C@@H](c2ccc(Cl)cc2)N(c2cc(C)c(=O)n(C)c2)C3=O)c(OC)n1` [Example 54, (R)-6-(4-chlorophenyl)-2-(2,4-dimethoxypyrimidin-5-yl)-5-(1,5-dimethyl-6-oxo-1,6-dihydropyridin-3-yl)-1-methyl-5,6-dihydropyrrolo[3,4-b]pyrrol-4(1H)-one] showed an IC50 at CREBBP of 91 nM. In addition, in the assay with MV-4-11, growth was halved (GI50) at 8.9 nM and the “MV-4-11 TGI” value was found to be 0.018 µM. Moreover, in the assay with K-562, the GI50 worked out at 48.3 nM and the “K-562 TGI” value is greater than 10 µM. Besides, in the assay with THP-1, the GI50 came out at 23.3 nM and the “THP-1 TGI” value amounted to 0.0415 µM.
On CREBBP, `COc1ncc(-c2cc3c(n2C)[C@@H](c2ccc(Cl)cc2)N(c2cc(C)c(=O)n(C)c2)C3=O)cn1` [Example 56, (R)-6-(4-chlorophenyl)-5-(1,5-dimethyl-6-oxo-1,6-dihydropyridin-3-yl)-2-(2-methoxypyrimidin-5-yl)-1-methyl-5,6-dihydropyrrolo[3,4-b]pyrrol-4(1H)-one] returned an IC50 of 130 nM. Moreover, in the assay on MV-4-11, it took 24.8 nM to inhibit growth by half (GI50) and the “MV-4-11 TGI” value was found to be 0.0445 µM. In the assay with K-562, the GI50 came out at 103 nM and the “K-562 TGI” value was greater than 10 µM. Besides, in the assay on THP-1, the GI50 worked out at 30.3 nM and the “THP-1 TGI” value amounted to 0.0507 µM.
`Cc1cc2c(n1C)[C@@H](c1ccc(Cl)cc1)N(c1cc(Cl)c(=O)n(C)c1)C2=O` [Example 75, (R)-5-(5-chloro-1-methyl-6-oxo-1,6-dihydropyridin-3-yl)-6-(4-chlorophenyl)-1,2-dimethyl-5,6-dihydropyrrolo[3,4-b]pyrrol-4(1H)-one] yielded an IC50 on CREBBP of 790 nM. Further, in the assay with MV-4-11, growth was halved (GI50) at 54.8 nM and the “MV-4-11 TGI” value is 0.102 µM. Also, in the assay with K-562, it took 289 nM to inhibit growth by half (GI50) and the “K-562 TGI” value was greater than 10 µM. In the assay with THP-1, growth was halved (GI50) at 74.3 nM and the “THP-1 TGI” value was 0.167 µM.
Take `Cn1ccc2c1[C@@H](c1ccc(Cl)cc1)N(c1cc(Cl)c(=O)n(C)c1)C2=O` [Example 77, (R)-5-(5-chloro-1-methyl-6-oxo-1,6-dihydropyridin-3-yl)-6-(4-chlorophenyl)-1-methyl-5,6-dihydropyrrolo[3,4-b]pyrrol-4(1H)-one]: the IC50 on CREBBP amounted to 1300 nM. For the same compound, in the assay with MV-4-11, the GI50 was 57.6 nM and the “MV-4-11 TGI” value was 0.0963 µM. In addition, in the assay with K-562, it took 342 nM to inhibit growth by half (GI50) and the “K-562 TGI” value is greater than 10 µM. Also, in the assay on THP-1, the GI50 is 88.9 nM and the “THP-1 TGI” value worked out at 0.146 µM.
